Test results from patent US8420657B2 (Novartis AG, priority 2008, dated 2013).

Molecular target: T1, GST-JAK2(808-1132) (Homo sapiens, UniProt O60674)
T1 construct: GST-JAK2(808-1132); purchased Invitrogen (Carlsbad, USA) #4288
Assay: JAK2 kinase assay (Caliper mobility shift, LabChip 3000)
Assay type: biochemical
In short: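 Eight-point compound series (final 10–0.003 μM) tested on purchased GST-JAK2 kinase domain (808-1132). Peptide FITC-JAK3tide plus ATP reacted 60 min, 30 °C, then quenched with EDTA; turnover from charge-based separation of substrate and product.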

T1 sequence (O60674 808-1132): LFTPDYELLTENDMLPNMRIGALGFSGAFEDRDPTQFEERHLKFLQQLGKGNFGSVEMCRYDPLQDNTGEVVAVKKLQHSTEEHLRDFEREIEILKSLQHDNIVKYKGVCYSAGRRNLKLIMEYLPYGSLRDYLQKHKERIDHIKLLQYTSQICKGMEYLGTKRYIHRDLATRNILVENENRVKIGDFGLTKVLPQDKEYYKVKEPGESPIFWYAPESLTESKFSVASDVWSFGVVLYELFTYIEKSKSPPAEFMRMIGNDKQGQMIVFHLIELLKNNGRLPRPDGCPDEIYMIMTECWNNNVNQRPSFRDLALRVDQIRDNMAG

Structure (SMILES)	IC50
CN1CCN(c2ccc(Nc3ncc4ccn(-c5cc(F)c(CO)c(F)c5)c4n3)cn2)CC1 [Example 280, (2,6-Difluoro-4-{2-[6-(4-methyl-piperazin-1-yl)-pyridin-3-ylamino]-pyrrolo[2,3-d]pyrimidin-7-yl}-phenyl)-methanol]	3.5 nM
CCN1CCCC1CNC(=O)c1ccc(-n2ccc3cnc(Nc4ccc(F)cc4)nc32)cc1 (stereo not drawn) [Example 63, N-(1-Ethyl-pyrrolidin-2-ylmethyl)-4-[2-(4-fluoro-phenylamino)-pyrrolo[2,3-d]pyrimidin-7-yl]-benzamide]	73 nM
CN1CCN(Cc2ccc(Nc3ncc4ccn(-c5cc(F)c(CN6CCOCC6)c(F)c5)c4n3)cc2C(F)(F)F)CC1 [Example 200, [7-(3,5-Difluoro-4-morpholin-4-ylmethyl-phenyl)-7H-pyrrolo[2,3-d]pyrimidin-2-yl]-[4-(4-methyl-piperazin-1-ylmethyl)-3-trifluoromethyl-phenyl]-amine]	3.7 nM
CN1CCN(Cc2ccc(Nc3ncc4ccn(-c5cc(F)c(C(=O)N6CCOCC6)c(F)c5)c4n3)cc2)CC1 [Example 205, (2,6-Difluoro-4-{2-[4-(4-methyl-piperazin-1-ylmethyl)-phenylamino]-pyrrolo[2,3-d]pyrimidin-7-yl}-phenyl)-morpholin-4-yl-methanone]	5 nM
Cc1ccc(Nc2ncc3ccn(-c4ccc(C(=O)N5CCOCC5)c(F)c4)c3n2)nc1C [Example 222, {4-[2-(5,6-Dimethyl-pyridin-2-ylamino)-pyrrolo[2,3-d]pyrimidin-7-yl]-2-fluoro-phenyl}-morpholin-4-yl-methanone]	290 nM
COc1ccc(Nc2ncc3ccn(-c4ccc(S(C)(=O)=O)cc4)c3n2)cc1N1CCN(C)CC1 [Example 25, [7-(4-Methanesulfonyl-phenyl)-7H-pyrrolo[2,3-d]pyrimidin-2-yl]-[4-methoxy-3-(4-methyl-piperazin-1-yl)-phenyl]-amine]	< 3 nM
CN1CCN(Cc2ccc(Nc3ncc4ccn(-c5ccc(S(C)(=O)=O)cc5)c4n3)cc2)CC1 [Example 38, [7-(4-Methanesulfonyl-phenyl)-7H-pyrrolo[2,3-d]pyrimidin-2-yl]-[4-(4-methyl-piperazin-1-ylmethyl)-phenyl]-amine]	4.5 nM
Cc1ccc(Nc2ncc3ccn(-c4cc(F)c(CN5CCOCC5)c(F)c4)c3n2)cc1COC1CNC1 [Example 420, [3-(Azetidin-3-yloxymethyl)-4-methyl-phenyl]-[7-(3,5-difluoro-4-morpholin-4-ylmethyl-phenyl)-7H-pyrrolo[2,3-d]pyrimidin-2-yl]-amine]	≤ 3 nM
Cc1cc(Nc2ncc3ccn(-c4cc(F)c(CN5CCOCC5)c(F)c4)c3n2)ccc1CN1CCNCC1 [Example 460, [7-(3,5-Difluoro-4-morpholin-4-ylmethyl-phenyl)-7H-pyrrolo[2,3-d]pyrimidin-2-yl]-(3-methyl-4-piperazin-1-ylmethyl-phenyl)-amine]	≤ 3 nM
Cc1ccc(Nc2ncc3ccn(-c4ccc(C(=O)N5CCOCC5)c(F)c4)c3n2)cc1 [Example 324, [2-Fluoro-4-(2-p-tolylamino-pyrrolo[2,3-d]pyrimidin-7-yl)-phenyl]-morpholin-4-yl-methanone]	26 nM
CS(=O)(=O)c1ccc(-n2ccc3cnc(Nc4ccnc(N5CCNC6(CC6)C5)c4)nc32)cc1 [Example 275, [2-(4,7-Diaza-spiro[2.5]oct-7-yl)-pyridin-4-yl]-[7-(4-methanesulfonyl-phenyl)-7H-pyrrolo[2,3-d]pyrimidin-2-yl]-amine]	7 nM
CCN1CCN(Cc2ccc(Nc3ncc4ccn(-c5ccc(S(C)(=O)=O)cc5)c4n3)nc2)CC1 [Example 317, [5-(4-Ethyl-piperazin-1-ylmethyl)-pyridin-2-yl]-[7-(4-methanesulfonyl-phenyl)-7H-pyrrolo[2,3-d]pyrimidin-2-yl]-amine]	940 nM

Next, values leading:

IC50	Structure (SMILES)
< 3 nM	CS(=O)(=O)c1ccc(-n2ccc3cnc(Nc4ccc(CN5CCNCC5)cc4)nc32)cc1 [Example 52, [7-(4-Methanesulfonyl-phenyl)-7H-pyrrolo[2,3-d]pyrimidin-2-yl]-(4-piperazin-1-ylmethyl-phenyl)-amine]
< 3 nM	CN1CCN2c3ccc(Nc4ncc5ccn(-c6ccc(S(C)(=O)=O)cc6)c5n4)cc3COCC2C1 (stereo not drawn) [Example 12, [7-(4-Methanesulfonyl-phenyl)-7H-pyrrolo[2,3-d]pyrimidin-2-yl]-(3-methyl-1,2,3,4,4a,5-hexahydro-7H-6-oxa-3,11b-diaza-dibenzo[a,c]cyclohepten-9-yl)-amine]
< 3 nM	Fc1cc(-n2ccc3cnc(Nc4cccc(CN5CCOCC5)c4)nc32)cc(F)c1CN1CCOCC1 [Example 198, [7-(3,5-Difluoro-4-morpholin-4-ylmethyl-phenyl)-7H-pyrrolo[2,3-d]pyrimidin-2-yl]-(3-morpholin-4-ylmethyl-phenyl)-amine]
< 3 nM	CC(=O)N1CCN(Cc2ccc(Nc3ncc4ccn(-c5ccc(C(=O)N6CCOCC6)c(F)c5)c4n3)cc2)CC1 [Example 322, 1-[4-(4-{7-[3-Fluoro-4-(morpholine-4-carbonyl)-phenyl]-7H-pyrrolo[2,3-d]pyrimidin-2-ylamino}-benzyl)-piperazin-1-yl]-ethanone]
≤ 3 nM	O=S1(=O)CCN(Cc2c(F)cc(-n3ccc4cnc(Nc5ccnc(N6CCNC7(CC7)C6)c5)nc43)cc2F)CC1 [Example 442]
< 3 nM	CN1CCN(c2ccc(Nc3ncc4ccn(-c5ccc(S(C)(=O)=O)cc5)c4n3)cc2)CC1 [Example 18, [7-(4-Methanesulfonyl-phenyl)-7H-pyrrolo[2,3-d]pyrimidin-2-yl]-[4-(4-methyl-piperazin-1-yl)-phenyl]-amine]
< 3 nM	CCN(CC)CCOc1ccc(Nc2ncc3ccn(-c4ccc(S(C)(=O)=O)cc4)c3n2)cc1 [Example 33, [4-(2-Diethylamino-ethoxy)-phenyl]-[7-(4-methanesulfonyl-phenyl)-7H-pyrrolo[2,3-d]pyrimidin-2-yl]-amine]
≤ 3 nM	Cc1ccc(Nc2ncc3ccn(-c4cc(F)c(CN5CCOCC5)c(F)c4)c3n2)cc1CN1CCC2(CCN(C)C2)C1 (stereo not drawn) [Example 450, [7-(3,5-Difluoro-4-morpholin-4-ylmethyl-phenyl)-7H-pyrrolo[2,3-d]pyrimidin-2-yl]-[4-methyl-3-(7-methyl-2,7-diaza-spiro[4.4]non-2-ylmethyl)-phenyl]-amine]
< 3 nM	COc1cc(Nc2ncc3ccn(-c4ccc(C(=O)NC(C)(C)C)cc4)c3n2)cc(OC)c1OC [Example 9, N-tert-Butyl-4-[2-(3,4,5-trimethoxy-phenylamino)-pyrrolo[2,3-d]pyrimidin-7-yl]-benzamide]
